Experimental findings from publication PMC3919815, “Anti-Tumor Effects of Novel 5-O-Acyl Plumbagins Based on the Inhibition of Mammalian DNA Replicative Polymerase Activity” (PLoS ONE, 2014) are described below.

Data set [1] has as its target Calf primase of pol α (Bos taurus, UniProt A0A3Q1MF00). The data set is described as follows: Other DNA metabolic enzyme assay. Format: biochemical. On the procedure: (§1) The activities of calf primase of pol α, T7 RNA polymerase, mouse inosine-5′-[…] (IMP) dehydrogenase (type II), T4 polynucleotide kinase, and bovine deoxyribonuclease I were measured in standard assays according to the manufacturer's specifications, as described by Tamiya-Koizumi et al., Nakayama and Saneyoshi, Mizushina et al., Soltis et al., and Lu and Sakaguchi, respectively.

Data set [2] has as its target Mouse IMP dehydrogenase (type II) (Mus musculus, UniProt P24547). The data set is described as follows: Other DNA metabolic enzyme assay. The format is biochemical. The protocol: as §1
Data set [3] addresses T1, Bovine deoxyribonuclease I (Bos taurus, UniProt P00639).
T1 construct: Bovine pancreas deoxyribonuclease I was obtained from Stratagene Cloning Systems; purchased Stratagene Cloning Systems (La Jolla, CA, USA); host or cells: bovine pancreas
The experiment in a line: Other DNA metabolic enzyme assay. Format: biochemical.
From the text: (§2) Pol α was purified from calf thymus by immunoaffinity column chromatography as described by Tamai et al.. Recombinant rat pol β was purified from Escherichia coli JMpβ5 as described by Date et al.. The human pol γ catalytic gene was cloned into pFastBac. Histidine-tagged enzyme was expressed using the BACTO-BAC HT Baculovirus Expression System according to the manufacturer's instructions (Life Technologies, Frederick, MD, USA) and purified using ProBound resin (Invitrogen Japan, Tokyo Japan). Human pols δ and ε were purified by nuclear fractionation of human peripheral blood cancer cells (Molt-4) using the second subunit of pol δ and ε-conjugated affinity column chromatography, respectively. A truncated form of human pol η (residues 1–511) tagged with His6 at its C-terminal was expressed in E. coli cells and purified as described by Kusumoto et al.. A recombinant mouse pol ι tagged with His6 at its C-terminal was expressed and purified by Ni–NTA column chromatography. A truncated form of pol κ (residues 1–560) with 6× His-tags attached at the C-terminus was overexpressed in E. coli and purified as described by Ohashi et al.. Recombinant human His-pol λ was overexpressed and purified according to a method described by Shimazaki et al.. Recombinant human His-pol μ was overexpressed in E. coli BL21 and purified using Glutathione Sepharose 4B (GE Healthcare Bio-Science Corp., Piscataway, NJ, USA) column chromatography according to the method for pol λ preparation by Shimazaki et al.. Pol α from a higher plant, cauliflower, was purified from the inflorescence structure according to the methods outlined by Sakaguchi et al.. Recombinant rice (Oryza sativa L. cv. Nipponbare) pol λ tagged with His6 at the C-terminus was expressed in E. coli and purified as described by Uchiyama et al.. Calf TdT, Taq pol, T4 pol, T7 RNA polymerase, and T4 polynucleotide kinase were purchased from Takara Bio Inc. (Kyoto, Japan). The Klenow fragment of pol I from E. coli was purchased from Worthington Biochemical Corp. (Freehold, NJ, USA). Bovine pancreas deoxyribonuclease I was obtained from Stratagene Cloning Systems (La Jolla, CA, USA).
as §1

For data set [4], the target named is T2, T4 polynucleotide kinase (Enterobacteria phage T4, UniProt P06855).
T2 construct: purchased Takara Bio Inc. (Kyoto, Japan)
The data set is described as follows: Other DNA metabolic enzyme assay. Format: biochemical.
From the text: as §2, §1

Data set [5] addresses T3, T7 RNA polymerase (Escherichia phage T7, UniProt P00573).
T3 construct: purchased Takara Bio Inc. (Kyoto, Japan)
The experiment in a line: Other DNA metabolic enzyme assay. Format: biochemical.
From the text: as §2, §1

Data set [6] has as its system HT-29 solid tumors. The data set is described as follows: In vivo anti-tumor assay. On the set-up: species or system nude mice. From the text: Male BALB/c nu/nu mice at 5 week of age (18 g) were purchased from Japan SLC, Inc. (Shizuoka, Japan). Mice receiving standard laboratory chow and water ad libitum were acclimatized for 1 week before inoculation with cancer cells. For in vivo experiments, human colon HT-29 cells (1×10^7 cells/mouse) were subcutaneously injected into nude mice. Mice bearing solid tumors that had grown to approximately 100 mm^3 in volume (tumor volume = length×width×height) at 12 days after implantation were used for the assessment of anti-tumor effects. They were divided randomly into five groups (n = 6/group). One of the five groups was a control group injected with 0.1 mL of phosphate buffered saline (PBS) alone, and other groups were injected with vitamin K3 (3), juglone (4), C18:1-acyl juglone (5f), and C18:1-acyl plumbagin (2f) dissolved in PBS at a dose of 5 mg/kg. The above administrations all took place between days 12–39 subsequent to implantation. All mice were injected subcutaneously 14 times at […] with the compound and PBS alone (control). Tumor growth was measured at 1-day intervals for 40 days after implantation. At the end of the in vivo anti-tumor assay, some mice treated with the test compounds and PBS were independently examined to observe major organs such as lung, heart, spleen, stomach, liver, pancreas, kidney, intestine, and brain.

Data set [7] can be described thus: Stability under basic conditions (Triton B, UV-vis). The format is physicochemical. Particulars: 1 equivalent Triton B in 1,4-dioxane and MeOH, 1.1×10^−3 M, 25°C. On the procedure: A 2.2×10^−2 M solution of Triton B in MeOH was added to a 2.2×10^−2 M solution of each sample in 1,4-dioxane. Then, the mixture was diluted with 1,4-dioxane to a concentration of 1.1×10^−3 M. Then, the stability of each compound was monitored by UV-vis spectroscopy. UV-vis spectra were measured at 25°C on a UV-vis spectrophotometer (JASCO V-650, Tokyo, Japan). For comparison, UV-vis spectra of 1.1×10^−3 M solution of C18:1-acyl plumbagin (2f), and C18:1-acyl juglone (5f) in 1,4-dioxane and MeOH (19/1, v/v) were measured.

Mouse IMP dehydrogenase (type II), sequence (P24547 whole entry): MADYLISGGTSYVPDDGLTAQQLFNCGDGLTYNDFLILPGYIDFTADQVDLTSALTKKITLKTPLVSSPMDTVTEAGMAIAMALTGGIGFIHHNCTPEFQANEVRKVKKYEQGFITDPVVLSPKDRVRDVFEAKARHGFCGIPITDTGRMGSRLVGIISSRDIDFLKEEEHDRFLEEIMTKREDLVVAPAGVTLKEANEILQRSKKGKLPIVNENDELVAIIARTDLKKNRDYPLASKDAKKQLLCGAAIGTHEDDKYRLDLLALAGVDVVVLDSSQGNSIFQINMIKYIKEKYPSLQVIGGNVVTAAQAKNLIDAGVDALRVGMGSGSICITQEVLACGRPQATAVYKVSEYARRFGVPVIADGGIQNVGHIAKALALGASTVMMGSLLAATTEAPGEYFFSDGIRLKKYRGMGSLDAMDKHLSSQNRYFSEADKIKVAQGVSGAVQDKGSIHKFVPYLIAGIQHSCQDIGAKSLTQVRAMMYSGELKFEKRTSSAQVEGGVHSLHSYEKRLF
T1 sequence (P00639 23-282): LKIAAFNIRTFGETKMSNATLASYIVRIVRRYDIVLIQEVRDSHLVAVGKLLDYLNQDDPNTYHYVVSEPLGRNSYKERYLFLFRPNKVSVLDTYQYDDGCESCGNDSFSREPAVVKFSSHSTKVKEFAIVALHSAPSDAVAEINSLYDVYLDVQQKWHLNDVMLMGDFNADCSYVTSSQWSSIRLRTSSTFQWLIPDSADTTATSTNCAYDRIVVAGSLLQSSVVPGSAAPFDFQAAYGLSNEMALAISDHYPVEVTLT
Calf primase of pol α, sequence (A0AAA9THK8 entry or part of it): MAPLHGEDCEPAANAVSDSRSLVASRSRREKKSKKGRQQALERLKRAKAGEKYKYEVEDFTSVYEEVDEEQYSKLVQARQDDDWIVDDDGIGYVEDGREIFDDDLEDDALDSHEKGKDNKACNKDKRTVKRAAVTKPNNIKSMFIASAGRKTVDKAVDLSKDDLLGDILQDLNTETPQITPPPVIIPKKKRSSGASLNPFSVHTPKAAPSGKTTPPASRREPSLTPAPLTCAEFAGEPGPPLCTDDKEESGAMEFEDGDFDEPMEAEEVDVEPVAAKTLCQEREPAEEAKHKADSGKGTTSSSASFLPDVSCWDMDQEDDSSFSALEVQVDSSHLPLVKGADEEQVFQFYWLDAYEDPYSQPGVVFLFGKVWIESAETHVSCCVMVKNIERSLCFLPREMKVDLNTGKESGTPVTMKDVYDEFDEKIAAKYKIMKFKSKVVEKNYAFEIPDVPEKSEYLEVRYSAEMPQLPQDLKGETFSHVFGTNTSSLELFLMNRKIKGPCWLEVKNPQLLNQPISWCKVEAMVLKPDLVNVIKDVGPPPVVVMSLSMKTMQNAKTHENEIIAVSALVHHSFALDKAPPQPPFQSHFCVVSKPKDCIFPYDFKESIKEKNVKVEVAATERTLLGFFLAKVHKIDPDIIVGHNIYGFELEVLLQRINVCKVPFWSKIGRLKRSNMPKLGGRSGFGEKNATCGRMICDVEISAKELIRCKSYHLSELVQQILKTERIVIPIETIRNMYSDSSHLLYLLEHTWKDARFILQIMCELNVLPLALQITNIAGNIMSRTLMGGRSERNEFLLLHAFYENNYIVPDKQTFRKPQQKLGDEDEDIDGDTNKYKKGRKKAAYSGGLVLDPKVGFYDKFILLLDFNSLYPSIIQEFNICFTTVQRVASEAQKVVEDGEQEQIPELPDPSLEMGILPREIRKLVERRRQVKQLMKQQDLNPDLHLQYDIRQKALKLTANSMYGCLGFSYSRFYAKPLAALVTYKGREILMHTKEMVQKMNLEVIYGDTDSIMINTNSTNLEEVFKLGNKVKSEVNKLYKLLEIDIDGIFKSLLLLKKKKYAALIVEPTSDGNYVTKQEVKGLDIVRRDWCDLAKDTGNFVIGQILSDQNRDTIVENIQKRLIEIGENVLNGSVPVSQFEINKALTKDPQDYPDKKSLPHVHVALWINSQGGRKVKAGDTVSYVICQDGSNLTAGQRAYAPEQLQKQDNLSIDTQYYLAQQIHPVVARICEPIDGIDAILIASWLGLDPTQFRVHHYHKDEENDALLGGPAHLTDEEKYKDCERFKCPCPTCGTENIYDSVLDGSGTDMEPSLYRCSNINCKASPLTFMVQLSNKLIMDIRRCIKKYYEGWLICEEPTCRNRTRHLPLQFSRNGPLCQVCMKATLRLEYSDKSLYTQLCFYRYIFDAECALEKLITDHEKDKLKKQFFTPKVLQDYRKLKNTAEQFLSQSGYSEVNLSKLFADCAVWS
Calf primase of pol α, sequence (A0JNF4 entry or part of it, further chain): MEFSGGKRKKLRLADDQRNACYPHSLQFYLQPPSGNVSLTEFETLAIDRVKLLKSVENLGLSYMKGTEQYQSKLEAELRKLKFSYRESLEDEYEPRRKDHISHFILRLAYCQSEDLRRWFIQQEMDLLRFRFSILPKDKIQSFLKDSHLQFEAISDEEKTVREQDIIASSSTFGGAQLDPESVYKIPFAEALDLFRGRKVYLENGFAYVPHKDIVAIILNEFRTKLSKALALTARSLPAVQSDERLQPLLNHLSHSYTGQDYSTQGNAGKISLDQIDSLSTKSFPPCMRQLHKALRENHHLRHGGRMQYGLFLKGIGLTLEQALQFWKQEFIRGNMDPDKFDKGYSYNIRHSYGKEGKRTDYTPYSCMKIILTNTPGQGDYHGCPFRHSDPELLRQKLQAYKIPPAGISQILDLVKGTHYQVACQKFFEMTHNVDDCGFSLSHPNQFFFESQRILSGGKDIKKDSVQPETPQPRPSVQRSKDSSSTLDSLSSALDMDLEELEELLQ
Calf primase of pol α, sequence (A0A3Q1MF00 entry or part of it): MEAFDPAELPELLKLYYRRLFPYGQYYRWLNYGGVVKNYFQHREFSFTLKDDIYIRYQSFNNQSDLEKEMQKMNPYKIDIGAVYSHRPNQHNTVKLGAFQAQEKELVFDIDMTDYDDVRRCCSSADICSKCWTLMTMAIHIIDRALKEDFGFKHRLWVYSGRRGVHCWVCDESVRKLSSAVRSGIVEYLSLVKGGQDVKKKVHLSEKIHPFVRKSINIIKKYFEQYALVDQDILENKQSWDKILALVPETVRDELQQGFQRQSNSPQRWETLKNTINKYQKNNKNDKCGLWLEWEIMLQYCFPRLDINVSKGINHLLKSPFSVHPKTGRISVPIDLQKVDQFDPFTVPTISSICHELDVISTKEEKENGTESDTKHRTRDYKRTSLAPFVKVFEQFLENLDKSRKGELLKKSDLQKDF
Calf primase of pol α, sequence (Q58D13 whole entry, further chain): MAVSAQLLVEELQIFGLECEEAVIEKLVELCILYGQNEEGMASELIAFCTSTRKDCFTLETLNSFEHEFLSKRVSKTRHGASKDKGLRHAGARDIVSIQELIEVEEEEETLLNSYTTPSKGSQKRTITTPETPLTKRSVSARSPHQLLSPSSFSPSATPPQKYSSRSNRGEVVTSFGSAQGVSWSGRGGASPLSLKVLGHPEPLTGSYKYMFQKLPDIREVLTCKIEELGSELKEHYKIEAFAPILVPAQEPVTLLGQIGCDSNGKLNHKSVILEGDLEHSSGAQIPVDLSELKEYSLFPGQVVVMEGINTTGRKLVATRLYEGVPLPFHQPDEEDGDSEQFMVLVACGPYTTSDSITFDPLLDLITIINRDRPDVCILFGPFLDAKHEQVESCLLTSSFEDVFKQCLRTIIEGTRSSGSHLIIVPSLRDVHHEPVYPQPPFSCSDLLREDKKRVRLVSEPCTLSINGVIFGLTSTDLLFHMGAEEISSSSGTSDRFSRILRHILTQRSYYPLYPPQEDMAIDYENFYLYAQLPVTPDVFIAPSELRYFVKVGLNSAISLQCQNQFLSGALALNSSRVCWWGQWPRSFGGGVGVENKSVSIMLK
T2 sequence (P06855 whole entry): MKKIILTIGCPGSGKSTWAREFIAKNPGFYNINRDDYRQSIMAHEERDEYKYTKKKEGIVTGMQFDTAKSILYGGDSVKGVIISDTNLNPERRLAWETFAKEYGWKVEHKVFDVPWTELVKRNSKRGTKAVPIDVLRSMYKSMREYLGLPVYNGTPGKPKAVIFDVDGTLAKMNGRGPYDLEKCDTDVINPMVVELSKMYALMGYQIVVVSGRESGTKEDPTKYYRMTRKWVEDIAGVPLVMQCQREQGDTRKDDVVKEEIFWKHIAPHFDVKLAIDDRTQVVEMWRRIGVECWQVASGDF
T3 sequence (P00573 whole entry): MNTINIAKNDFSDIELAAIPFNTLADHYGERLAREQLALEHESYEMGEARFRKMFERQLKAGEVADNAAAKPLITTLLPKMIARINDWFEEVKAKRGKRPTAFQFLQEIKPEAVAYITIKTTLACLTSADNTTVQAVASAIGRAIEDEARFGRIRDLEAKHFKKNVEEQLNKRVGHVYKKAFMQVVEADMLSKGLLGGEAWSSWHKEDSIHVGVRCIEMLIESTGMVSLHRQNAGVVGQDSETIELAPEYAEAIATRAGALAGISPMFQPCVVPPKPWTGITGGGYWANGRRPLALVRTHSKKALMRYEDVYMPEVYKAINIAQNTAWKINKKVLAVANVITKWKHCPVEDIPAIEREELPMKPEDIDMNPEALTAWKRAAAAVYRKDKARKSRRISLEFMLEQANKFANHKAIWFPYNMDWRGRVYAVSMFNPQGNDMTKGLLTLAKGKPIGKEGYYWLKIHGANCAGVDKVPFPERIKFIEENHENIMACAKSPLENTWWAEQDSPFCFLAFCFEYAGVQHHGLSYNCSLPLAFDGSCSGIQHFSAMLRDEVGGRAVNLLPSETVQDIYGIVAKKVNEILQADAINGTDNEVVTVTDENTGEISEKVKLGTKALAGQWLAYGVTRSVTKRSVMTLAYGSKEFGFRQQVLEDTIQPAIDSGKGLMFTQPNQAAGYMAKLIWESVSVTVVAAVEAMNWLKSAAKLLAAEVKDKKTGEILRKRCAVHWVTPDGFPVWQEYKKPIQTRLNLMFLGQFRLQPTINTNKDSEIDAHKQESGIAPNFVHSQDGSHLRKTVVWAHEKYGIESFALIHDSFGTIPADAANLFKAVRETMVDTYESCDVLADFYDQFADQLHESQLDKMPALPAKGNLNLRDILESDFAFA

Usually IC50 stands for the concentration that gives 50% inhibition. Read a high IC50 as weaker potency in that assay. Consider `CCCCCCCC/C=C\CCCCCCCC(=O)Oc1cccc2c1C(=O)C=C(C)C2=O` [2f, 5-O-oleoyl-2-methyl-1,4-naphthoquinone], for which the “effect on enzyme activity (in words)” value in data set [1], in data set [2], in data set [3], in data set [4] and in data set [5] was “did not inhibit” in each case. Besides, the IC50 in data set [1] (0.05 units enzyme), in data set [2] (0.05 units enzyme), in data set [3] (0.05 units enzyme), in data set [4] (0.05 units enzyme) and in data set [5] (0.05 units enzyme) was above 100 µM in each case. In addition, the “anti-tumor effect, fold stronger than the other compounds tested” value in data set [6] (5 mg/kg, versus vitamin K3, juglone, C18:1-acyl juglone) is given as above 3 fold. The “decreased rates of tumor volume” value in data set [6] (at 40 days, 5 mg/kg subcutaneously in PBS, versus PBS control, n = 6) came out at 30.5%. Also, in data set [7], the “stability under basic conditions (UV spectra)” value is recorded as “Almost no changes in UV spectra”.
